One test deals with S. aureus (ATCC 6538). The class given is cell-based, Staphylococcus aureus. The method, then:
(§1) Two MDR bacteria, MDR-E. coli (LZ-7, drug resistance: compound sulfamethoxazole, ampicillin, gentamicin, ciprofloxacin, levofloxacin) and MDR-A. baumannii (AB-29, drug resistance: 11 kinds of antibiotics including cephalosporins), along with three pathogenic bacteria, E. coli (ATCC 25922), S. aureus (ATCC 6538), and A. baumannii (309-14) were included in the study. A single colony of each bacterium was cultured in Luria-Bertani (LB) medium at 37°C and 180 rpm for 12–16 h until the logarithmic growth phase for use.
(§2) The MIC of the peptides against a range of bacteria was determined using the microbroth dilution method with slight modifications ([62]). In brief, the bacteria mentioned above were dispersed in the LB (10^5 CFU mL^−1) and were mixed with gradient concentrations (0.25 μM–16 μM) of SAMPs in the 96-well plate (n = 3). After incubation at 37°C for 16–18 h, the absorbance at 600 nm was measured using a microplate reader (Thermo Fisher Scientific, Multiskan MK3, China). The lowest peptide concentration with no absorbance increase was defined as the MICs. The bacterial solution in the 96-well plate was then transferred to solid LB medium to culture single colonies (n = 3), and the lowest peptide concentration at which almost no colonies survive (less than 0.01%) was defined as the MBCs.

A further test relates to E. coli (ATCC 25922). The class given is cell-based, Escherichia coli. The method, then:
as §1, §2

The next test has as its system MDR-E. coli (LZ-7). The class given is cell-based, Escherichia coli. How it is done: as §1, §2
Another test concerns A. baumannii (309-14). The class given is cell-based, Acinetobacter baumannii. How it is done:
as §1, §2

In a further test the test system is MDR-A. baumannii (AB-29). The class given is cell-based, Acinetobacter baumannii. How it is done:
as §1, §2

The subject of another test is S. aureus. The class given is cell-based, Staphylococcus aureus. As to conditions: 12 h. The method, then:
as §2
(§3) Based on previous methods, stability was analyzed by monitoring the changes in the antimicrobial efficacy of SAMPs in the presence of salts and serum ([37], [38]). The SAMPs underwent incubation with physiological salts (150 mM NaCl, 4.5 mM KCl) or serum at 37°C for 12 h, followed by measurement of their MICs using the previously outlined method (n = 3).

In the next test the test system is E. coli. The class given is cell-based, Escherichia coli. As to conditions: 12 h. How it is done:
as §2, §3

For test [1], the system named is S. aureus, E. coli, A. baumannii, MDR-E. coli, MDR-A. baumannii. The class given is cell-based. The method, then: as §1, §2
The test system of the next test is S. aureus and E. coli. Kind of test: Drug resistance assay (serial passage). The class given is cell-based. As to conditions: Colistin E 4 μg mL−1, 30 days. How it is done: The evaluation of drug resistance in SAMPs was performed through MIC value detection ([74]). Resistance was defined as a greater than fourfold increase in the MIC from its initial value. S. aureus and E. coli grown in LB medium supplemented with 0.5 × MIC of each SAMP were repeated for 30 days, followed by determination of MIC values using the same methodology outlined above (n = 3). Meanwhile, Colistin E (4 μg mL^-1) was used as the control group to induce bacterial resistance in the same way.

Read-outs that look alike come from different tables or passages of the source. No end group written: not given here.

What is called MBC is the smallest concentration meeting the test's criterion for killing. A high value points to weaker bactericidal potency. As usually defined, the MIC is the lowest concentration found to suppress growth. Lower therefore signals inhibition by little substance. For FLKLRLWGKLLWKLK-NH2 [GK], the minimal bactericidal concentration (MBC) in the test with S. aureus (ATCC 6538) (ATCC 6538) was determined as 2 µM; in the test with E. coli (ATCC 25922) (ATCC 25922), 8 µM; against MDR-E. coli (LZ-7) (MDR- (LZ-7)) it was 16 µM; in the test with A. baumannii (309-14) (309-14) it was 4 µM; in the test with MDR-A. baumannii (AB-29) (MDR- (AB-29)), 4 µM. For the same substance, the minimal inhibitory concentration (MIC) against S. aureus (ATCC 6538) (ATCC 6538) came out at 1 µM; against E. coli (ATCC 25922) (ATCC 25922), 2 µM; against MDR-E. coli (LZ-7) (MDR- (LZ-7)), 16 µM; in the test with A. baumannii (309-14) (309-14), 2 µM; against MDR-A. baumannii (AB-29) (MDR- (AB-29)) it was 1 µM. In addition, the entries for the “MIC after treatment, KCl” value in the test with S. aureus and against E. coli were 1 µM and 2 µM, respectively. The figures for the “MIC after treatment, NaCl” value against S. aureus and in the test on E. coli were 1 µM and 2 µM, respectively. Also, the figures for the “MIC after treatment, Serum” value in the test with S. aureus and against E. coli were 1 µM and 2 µM, respectively.
Consider FLKLRLWRKLLWKLK-NH2 [RK], for which the MBC was found to be 1 µM in the test on S. aureus (ATCC 6538) (ATCC 6538); 1 µM in the test with E. coli (ATCC 25922) (ATCC 25922); 4 µM against MDR-E. coli (LZ-7) (MDR- (LZ-7)); 0.5 µM in the test with A. baumannii (309-14) (309-14); 0.5 µM with MDR-A. baumannii (AB-29) (MDR- (AB-29)). The MIC against S. aureus (ATCC 6538) (ATCC 6538) amounted to 0.25 µM; with E. coli (ATCC 25922) (ATCC 25922), 0.25 µM; in the test on MDR-E. coli (LZ-7) (MDR- (LZ-7)) it was 2 µM; against A. baumannii (309-14) (309-14) it was 0.5 µM; with MDR-A. baumannii (AB-29) (MDR- (AB-29)), 0.25 µM. Moreover, the “MIC, common pathogenic bacteria and MDR bacteria” value in test [1] was 0.25 to 2 µM. In addition, the “MIC after treatment, KCl” value with S. aureus and in the test with E. coli was 0.25 µM in each case. Further, the “MIC after treatment, NaCl” value with S. aureus and against E. coli was 0.25 µM in each case. Moreover, the “MIC after treatment, Serum” value against S. aureus and against E. coli was 0.25 µM throughout.
Regarding FLKLRLWKRLLWKLK-NH2 [KR], the MBC in the test with S. aureus (ATCC 6538) (ATCC 6538) was determined as 0.5 µM; in the test with E. coli (ATCC 25922) (ATCC 25922) it was 0.5 µM; with MDR-E. coli (LZ-7) (MDR- (LZ-7)), 4 µM; in the test with A. baumannii (309-14) (309-14) it was 0.25 µM; in the test with MDR-A. baumannii (AB-29) (MDR- (AB-29)), 0.25 µM. Moreover, the MIC in the test on S. aureus (ATCC 6538) (ATCC 6538) was 0.25 µM; against E. coli (ATCC 25922) (ATCC 25922) it was 0.25 µM; with MDR-E. coli (LZ-7) (MDR- (LZ-7)), 1 µM; in the test with A. baumannii (309-14) (309-14) it was 0.25 µM; against MDR-A. baumannii (AB-29) (MDR- (AB-29)), 0.25 µM. Moreover, in [1], the “MIC, common pathogenic bacteria and MDR bacteria” value fell in the range of 0.25 to 2 µM. The “MIC after treatment, KCl” value in the test with S. aureus and in the test on E. coli was 0.25 µM each time. Further, the “MIC after treatment, NaCl” value with S. aureus and with E. coli was 0.25 µM in each case. The “MIC after treatment, Serum” value in the test on S. aureus and against E. coli was 0.25 µM each time.
Consider Colistin E [reference compound], for which the minimum inhibitory concentration (MIC) with S. aureus (ATCC 6538) (S. aureus, microbroth dilution in LB, 10^5 CFU mL−1, 37°C, 16–18 h, absorbance 600 nm, n = 3) was above 256 µM; against E. coli (ATCC 25922) (E. coli, microbroth dilution in LB, 10^5 CFU mL−1, 37°C, 16–18 h, absorbance 600 nm, n = 3), 256 µM; in the test with MDR-E. coli (LZ-7) (MDR-E. coli, microbroth dilution in LB, 10^5 CFU mL−1, 37°C, 16–18 h, absorbance 600 nm, n = 3) it was above 256 µM; against A. baumannii (309-14) (A. baumannii, microbroth dilution in LB, 10^5 CFU mL−1, 37°C, 16–18 h, absorbance 600 nm, n = 3), 32 µM; against MDR-A. baumannii (AB-29) (MDR-A. baumannii, microbroth dilution in LB, 10^5 CFU mL−1, 37°C, 16–18 h, absorbance 600 nm, n = 3), 128 µM. In addition, the “antimicrobial activity after resistance induction” value with S. aureus and E. coli was “significant decrease in the antimicrobial activity”.
Take FLKLRLWGRLLWKLK-NH2 [GR]: the MBC is 2 µM with S. aureus (ATCC 6538) (ATCC 6538); 8 µM against E. coli (ATCC 25922) (ATCC 25922); 16 µM in the test on MDR-E. coli (LZ-7) (MDR- (LZ-7)); 2 µM with A. baumannii (309-14) (309-14); 2 µM in the test on MDR-A. baumannii (AB-29) (MDR- (AB-29)). Besides, the MIC against S. aureus (ATCC 6538) (ATCC 6538) was 1 µM; against E. coli (ATCC 25922) (ATCC 25922), 2 µM; against MDR-E. coli (LZ-7) (MDR- (LZ-7)), 16 µM; in the test on A. baumannii (309-14) (309-14), 2 µM; with MDR-A. baumannii (AB-29) (MDR- (AB-29)) it was 0.5 µM. The “MIC after treatment, KCl” value against S. aureus stood at 1 µM; in the test with E. coli it was 2 µM. The “MIC after treatment, NaCl” value turned out to be 1 µM against S. aureus and 2 µM against E. coli. The “MIC after treatment, Serum” value is 1 µM in the test on S. aureus and 2 µM with E. coli.
“FLALALIQEAIAKLK-NH2 [FA, Kassporin-KS1, reference compound]”: the MBC in the test on S. aureus (ATCC 6538) (ATCC 6538), in the test on E. coli (ATCC 25922) (ATCC 25922), with MDR-E. coli (LZ-7) (MDR- (LZ-7)), in the test on A. baumannii (309-14) (309-14) and against MDR-A. baumannii (AB-29) (MDR- (AB-29)) was above 128 µM throughout. For the same substance, the MIC against S. aureus (ATCC 6538) (ATCC 6538), in the test on E. coli (ATCC 25922) (ATCC 25922), against MDR-E. coli (LZ-7) (MDR- (LZ-7)), against A. baumannii (309-14) (309-14) and in the test on MDR-A. baumannii (AB-29) (MDR- (AB-29)) was above 32 µM throughout. Besides, in test [1], the “MIC, three prevalent pathogenic bacteria” value is reported as above 32 µM.
For the substance FLKLRLWKKLLWKLK-NH2 [KK], the MBC in the test on S. aureus (ATCC 6538) (ATCC 6538) came out at 2 µM; with E. coli (ATCC 25922) (ATCC 25922), 4 µM; against MDR-E. coli (LZ-7) (MDR- (LZ-7)) it was 8 µM; against A. baumannii (309-14) (309-14) it was 1 µM; in the test with MDR-A. baumannii (AB-29) (MDR- (AB-29)), 1 µM. The MIC against S. aureus (ATCC 6538) (ATCC 6538) stood at 0.5 µM; with E. coli (ATCC 25922) (ATCC 25922), 0.5 µM; against MDR-E. coli (LZ-7) (MDR- (LZ-7)), 2 µM; against A. baumannii (309-14) (309-14), 0.5 µM; against MDR-A. baumannii (AB-29) (MDR- (AB-29)), 0.5 µM. In addition, the “MIC after treatment, KCl” value with S. aureus and against E. coli was 0.5 µM each time. For the same substance, the “MIC after treatment, NaCl” value in the test on S. aureus and against E. coli was 1 µM throughout. Also, the “MIC after treatment, Serum” value against S. aureus and against E. coli was 0.5 µM in each case.
With FLKLRLWRRLLWKLK-NH2 [RR], the MBC in the test with S. aureus (ATCC 6538) (ATCC 6538) is 2 µM; against E. coli (ATCC 25922) (ATCC 25922) it was 2 µM; in the test with MDR-E. coli (LZ-7) (MDR- (LZ-7)), 8 µM; in the test on A. baumannii (309-14) (309-14) it was 1 µM; in the test with MDR-A. baumannii (AB-29) (MDR- (AB-29)), 2 µM. The minimum inhibitory concentration (MIC) with S. aureus (ATCC 6538) (ATCC 6538) came to 0.5 µM; with E. coli (ATCC 25922) (ATCC 25922), 0.5 µM; against MDR-E. coli (LZ-7) (MDR- (LZ-7)) it was 2 µM; with A. baumannii (309-14) (309-14), 1 µM; against MDR-A. baumannii (AB-29) (MDR- (AB-29)), 0.5 µM. Also, the “MIC after treatment, KCl” value with S. aureus and against E. coli was 0.5 µM each time. For the same substance, the “MIC after treatment, NaCl” value was 0.5 µM against S. aureus and 1 µM in the test with E. coli. Moreover, the “MIC after treatment, Serum” value against S. aureus and with E. coli was 0.5 µM each time.

Source of the values: PMC12888869, “A short antimicrobial peptides family demonstrates efficacy to infection via a multimodal mechanism of action” (Antimicrobial Agents and Chemotherapy, 2025).
